Results taken from patent US10098870B2 (JENKEM TECHNOLOGY CO., LTD. (BEIJING), priority 2013, dated 2018).
“Also recorded” adds a separate entry of the source. Where two headings read alike, the source gives them in different places.

Key:
[1] = test system: human hepatoma cell Hep3B; assay: Anti-tumor effect on xenograft tumor model of Hep3B in immune deficiency mice (Example 7); conditions: for Tumor volume: mean ± SE
[2] = test system: human hepatoma cell plc/prf/5; assay: Anti-tumor effect on xenograft tumor model of plc/prf/5 in nude mice (Example 6); conditions: for Tumor volume: 25 mg/kg i.v. QD×5, mean ± SE
Text: 10 days later the mean tumor volume was desired to reach about 161 mm^3, the mice with a smaller or larger tumor were removed and the remaining 24 mice were divided into groups randomly according to tumor volume and administrated.
Wherein QW×4W represents intravenous injection once a week for 4 weeks, BIW×4W represents intravenous injection once every two weeks for 4 weeks, the same below.

[3] = Body weight, survival and tolerance of mice bearing Hep3B (Example 7); assay type: in vivo, mouse; conditions: 15 mg/kg i.v. (QD×5)×2W, mean ± SE
[4] = Body weight, survival and tolerance of mice bearing plc/prf/5 (Example 6); assay type: in vivo, nude mouse; conditions: for Body weight of animal: 25 mg/kg i.v. QD×5, mean ± SE
Text: Wherein QW×4W represents intravenous injection once a week for 4 weeks, BIW×4W represents intravenous injection […] for 4 weeks, the same below. (2) Experimental Results

[5] = in words; cited from earlier work
[6] = Body weight, survival and tolerance of mice bearing H460 (Example 8); conditions: 15 mg/kg i.v. BIW×3W; for Body weight of animal: mean ± SE
Procedure: (§1) 5.0×10^6 of H460 tumor cells were suspended in 0.1 ml of PBS, inoculated to each nude mouse at the right shoulder, and there were totally 34 mice inoculated. 8 days later the mean tumor volume was desired to reach about 143 mm^3, the mice with a smaller or larger tumor were removed and the remaining 24 mice were divided into groups randomly according to tumor volume and administrated.

[7] = Body weight, survival and tolerance of mice bearing Calu-6 (Example 9);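 on all read-outs here: nude mice bearing Calu-6 tumours, established by implanting 5.0×10^6 cells at the right shoulder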; conditions: 15 mg/kg i.v. BIW×4W; for Body weight of animal: mean ± SE
Procedure: (§2) 5.0×10^6 of Calu-6 tumor cells were suspended in 0.1 ml of PBS, inoculated to each nude mouse at the right shoulder, and there were totally 34 mice inoculated.

[8] = test system: A549 human non-small cell lung cancer cells; assay: Anti-tumor effect on xenograft tumor model of A549 in nude mice (Example 10);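 on all read-outs here: nude mice bearing A549 xenografts established by inoculating 1.0×10^7 cells in PBS at the right shoulder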; conditions: 15 mg/kg i.v. BIW×4W; for Tumor volume: mean ± SE
Procedure: A549 cells were cultured with a monolayer in vitro in RPMI1640 medium supplied with heat-inactivated fetal bovine serum with a volume ratio of 10%, and an incubator at 37° C. with the air containing CO2 with a proportion of 5%. The tumor cells were passaged with digestion by trypsin-EDTA twice a week. The cells in the exponential growth phase were collected, counted, and used for inoculation.
(§3) 1.0×10^7 of A549 tumor cells were suspended in 0.1 ml of PBS, inoculated to each nude mouse at the right shoulder, and there were totally 36 mice inoculated.

[9] = test system: H460 human non-small cell lung cancer cells; conditions: 15 mg/kg i.v. BIW×3W; for Tumor volume: mean ± SE
Procedure: as §1

[10] = test system: Calu-6 human lung cancer cell; assay: Anti-tumor effect on xenograft tumor model of Calu-6 in nude mice (Example 9);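 on all read-outs here: each nude mouse received 5.0×10^6 Calu-6 cells implanted at the right shoulder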; conditions: 15 mg/kg i.v. BIW×4W; for Tumor volume: mean ± SE
Procedure: Calu-6 cells were cultured with a monolayer in vitro in MEM medium supplied with heat-inactivated fetal bovine serum with a volume ratio of 10%, and an incubator at 37° C. with the air containing CO2 with a proportion of 5%. The tumor cells were passaged with digestion by trypsin-EDTA twice a week. The cells in the exponential growth phase were collected, counted, and used for inoculation.
as §2

[11] = Body weight, survival and tolerance of mice bearing A549 (Example 10);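 on all read-outs here: nude mice, each given 1.0×10^7 A549 tumor cells in the right shoulder region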; conditions: 15 mg/kg i.v. BIW×4W; for Body weight of animal: mean ± SE
Procedure: as §3

[12] = acids, bases, physiological conditions; in words; cited from earlier work
[13] = test system: human hepatoma cell plc/prf/5; assay: Anti-tumor effect on subcutaneous transplantation tumor model of plc/prf/5 in NOD/SCID mice (Example 5); assay type: in vivo, NOD/SCID mouse; conditions: for Tumor volume: 10 mg/kg (counted with rapamycin) i.v. Q2W×2W, mean ± SE
Procedure: The tumor cells were passaged with digestion by trypsin-EDTA twice a week. The cells in the exponential growth phase were collected, counted, and used for inoculation.
1×10^7 of plc/prf/5 tumor cells were suspended in 0.1 ml of mixed solution (PBS:Matrigel=4:1), inoculated to each NOD/SCID mouse at the right shoulder.
Wherein Q2W×2W represents intravenous injection […] for 2 weeks, the same below. (2) Experimental Results

[14] = 15 mg/kg i.v. (QD×5)×2W, vs physiological saline
[15] = 44th day, 15 mg/kg i.v. (QD×5)×2W, Mean ± SEM
[16] = 5-FU 25 mg/kg, LPR-2 30 and 45 mg/kg

O=c1[nH]cc(F)c(=O)[nH]1 [5-FU, reference compound]
TGD (to 1,000 mm^3) ([1]; 15 mg/kg i.v. (QD×5)×2W): 6 | T/C (%) RTV [1, 14]: 106% | T/C (%) TW [1, 14]: 109% | anti-tumor effect (in words) ([1]; 5-FU 15 mg/kg, LPR-2 30 and 45 mg/kg): not significant | RTV [1, 15]: 4.53 ± 0.32 | Tumor weight [1, 15]: 1695 ± 289 mg | Tumor volume ([1]; day 16 after inoculation, 15 mg/kg i.v. (QD×5)×2W): 453 ± 66 mm^3 | Tumor volume ([1]; day 20 after inoculation, 15 mg/kg i.v. (QD×5)×2W): 567 ± 84 mm^3 | Tumor volume ([1]; day 23 after inoculation, 15 mg/kg i.v. (QD×5)×2W): 667 ± 105 mm^3 | Tumor volume ([1]; day 27 after inoculation, 15 mg/kg i.v. (QD×5)×2W): 820 ± 149 mm^3 | Tumor volume ([1]; day 30 after inoculation, 15 mg/kg i.v. (QD×5)×2W): 850 ± 150 mm^3 | Tumor volume ([1]; day 34 after inoculation, 15 mg/kg i.v. (QD×5)×2W): 1,123 ± 226 mm^3 | Tumor volume ([1]; day 37 after inoculation, 15 mg/kg i.v. (QD×5)×2W): 1,500 ± 295 mm^3 | Tumor volume ([1]; day 41 after inoculation, 15 mg/kg i.v. (QD×5)×2W): 1,793 ± 342 mm^3 | Tumor volume ([1]; day 44 after inoculation, 15 mg/kg i.v. (QD×5)×2W): 2,114 ± 395 mm^3 | anti-tumor effect (in words) [2, 16]: obvious anti-tumor effect | Tumor volume ([2]; day 10 after inoculation): 170 ± 16 mm^3 | Tumor volume ([2]; day 13 after inoculation): 118 ± 7 mm^3 | Tumor volume ([2]; day 17 after inoculation): 69 ± 4 mm^3 | Body weight of animal ([3]; day 20 after inoculation): 19.4 ± 0.4 g | Body weight of animal ([3]; day 23 after inoculation): 19.7 ± 0.3 g | Body weight of animal ([3]; day 27 after inoculation): 18.6 ± 0.3 g | Body weight of animal ([3]; day 30 after inoculation): 18.1 ± 0.3 g | Body weight of animal ([3]; day 34 after inoculation): 18.5 ± 0.4 g | Body weight of animal ([3]; day 37 after inoculation): 18.3 ± 0.3 g | Body weight of animal ([3]; day 41 after inoculation): 18.1 ± 0.3 g | toxicity / tolerance (in words) [4, 16]: so toxic with this dosage that all the animals died; also recorded: a significant toxicity and the whole group of animals died | Body weight of animal ([4]; day 10 after inoculation): 19.6 ± 0.3 g | Body weight of animal ([4]; day 17 after inoculation): 14.7 ± 0.5 g

CO[C@H]1C[C@@H]2CC[C@@H](C)[C@@](O)(O2)C(=O)C(=O)N2CCCC[C@H]2C(=O)O[C@H]([C@H](C)C[C@@H]2CC[C@@H](OCCO)[C@H](OC)C2)CC(=O)[C@H](C)/C=C(\C)[C@@H](O)[C@@H](OC)C(=O)[C@H](C)C[C@H](C)/C=C/C=C/C=C/1C [Everolimus, 42-O-(2-hydroxyethyl)-rapamycin]
water-solubility [5]: better water-solubility than that of rapamycin

CC(=O)O[C@H]1C(=O)[C@@]2(C)[C@H]([C@H](OC(=O)c3ccccc3)[C@]3(O)C[C@H](OC(=O)[C@H](O)[C@@H](NC(=O)c4ccccc4)c4ccccc4)C(C)=C1C3(C)C)[C@]1(OC(C)=O)CO[C@@H]1C[C@@H]2O [Paclitaxel, reference compound]
N, number of surviving animals after completion of the treatment ([6]; 6 animals per group): 6 | Body weight of animal ([6]; day 8 after inoculation): 20.1 ± 0.4 g | Body weight of animal ([6]; day 12 after inoculation): 19.9 ± 0.3 g | Body weight of animal ([6]; day 15 after inoculation): 19.8 ± 0.2 g | Body weight of animal ([6]; day 19 after inoculation): 19.5 ± 0.2 g | Body weight of animal ([6]; day 22 after inoculation): 18.6 ± 0.3 g | N, number of surviving animals after completion of the treatment ([7]; 6 animals per group): 6 | Body weight of animal ([7]; day 17 after inoculation): 20.5 ± 0.2 g | Body weight of animal ([7]; day 21 after inoculation): 20.5 ± 0.3 g | Body weight of animal ([7]; day 24 after inoculation): 19.6 ± 0.4 g | Body weight of animal ([7]; day 28 after inoculation): 19.8 ± 0.4 g | Body weight of animal ([7]; day 31 after inoculation): 19.7 ± 0.6 g | Body weight of animal ([7]; day 35 after inoculation): 20.1 ± 0.5 g | Body weight of animal ([7]; day 38 after inoculation): 20.1 ± 0.4 g | TGD (to 1,000 mm^3) [8]: >7 | T/C (%) RTV ([8]; vs physiological saline): 24% | T/C (%) TW ([8]; vs physiological saline): 19% | RTV ([8]; 52nd day, Mean ± SEM): 2.35 ± 0.16 | Tumor weight ([8]; 52nd day, Mean ± SEM): 253 ± 52 mg | Tumor volume ([8]; day 24 after inoculation): 138 ± 13 mm^3 | Tumor volume ([8]; day 28 after inoculation): 196 ± 24 mm^3 | Tumor volume ([8]; day 31 after inoculation): 230 ± 35 mm^3 | Tumor volume ([8]; day 35 after inoculation): 260 ± 49 mm^3 | Tumor volume ([8]; day 38 after inoculation): 265 ± 48 mm^3 | Tumor volume ([8]; day 42 after inoculation): 294 ± 41 mm^3 | Tumor volume ([8]; day 45 after inoculation): 327 ± 54 mm^3 | Tumor volume ([8]; day 49 after inoculation): 342 ± 54 mm^3 | Tumor volume ([8]; day 52 after inoculation): 331 ± 49 mm^3 | TGD (to 1,000 mm^3) [9]: 7 | T/C (%) RTV ([9]; vs physiological saline): 59% | T/C (%) TW ([9]; vs physiological saline): 66% | RTV ([9]; 29th day, Mean ± SEM): 9.03 ± 0.93 | Tumor weight ([9]; 29th day, Mean ± SEM): 1053 ± 146 mg | Tumor volume ([9]; day 8 after inoculation): 143 ± 15 mm^3 | Tumor volume ([9]; day 12 after inoculation): 295 ± 42 mm^3 | Tumor volume ([9]; day 15 after inoculation): 400 ± 70 mm^3 | Tumor volume ([9]; day 19 after inoculation): 519 ± 97 mm^3 | Tumor volume ([9]; day 22 after inoculation): 680 ± 110 mm^3 | Tumor volume ([9]; day 26 after inoculation): 944 ± 117 mm^3 | Tumor volume ([9]; day 29 after inoculation): 1,281 ± 184 mm^3 | TGD (to 1,000 mm^3) [10]: >8 | T/C (%) RTV ([10]; vs physiological saline): 16% | T/C (%) TW ([10]; vs physiological saline): 13% | RTV ([10]; 42nd day, Mean ± SEM): 2.31 ± 0.53 | Tumor weight ([10]; 42nd day, Mean ± SEM): 202 ± 52 mg | Tumor volume ([10]; day 14 after inoculation): 138 ± 14 mm^3 | Tumor volume ([10]; day 17 after inoculation): 159 ± 18 mm^3 | Tumor volume ([10]; day 21 after inoculation): 222 ± 23 mm^3 | Tumor volume ([10]; day 24 after inoculation): 219 ± 26 mm^3 | Tumor volume ([10]; day 28 after inoculation): 229 ± 37 mm^3 | Tumor volume ([10]; day 31 after inoculation): 264 ± 53 mm^3 | Tumor volume ([10]; day 35 after inoculation): 281 ± 59 mm^3 | Tumor volume ([10]; day 38 after inoculation): 282 ± 60 mm^3 | Tumor volume ([10]; day 42 after inoculation): 314 ± 72 mm^3 | N, number of surviving animals after completion of the treatment ([11]; 6 animals per group): 6 | Body weight of animal ([11]; day 24 after inoculation): 20.6 ± 0.4 g | Body weight of animal ([11]; day 28 after inoculation): 20.8 ± 0.4 g | Body weight of animal ([11]; day 31 after inoculation): 20.6 ± 0.4 g | Body weight of animal ([11]; day 35 after inoculation): 20.8 ± 0.5 g | Body weight of animal ([11]; day 38 after inoculation): 20.8 ± 0.6 g | Body weight of animal ([11]; day 42 after inoculation): 21.6 ± 0.6 g | Body weight of animal ([11]; day 45 after inoculation): 21.3 ± 0.6 g | Body weight of animal ([11]; day 49 after inoculation): 21.3 ± 0.7 g | Body weight of animal ([11]; day 52 after inoculation): 21.8 ± 0.6 g

CO[C@H]1C[C@@H]2CC[C@@H](C)[C@@](O)(O2)C(=O)C(=O)N2CCCC[C@H]2C(=O)O[C@H]([C@H](C)C[C@@H]2CC[C@@H](O)[C@H](OC)C2)CC(=O)[C@H](C)/C=C(\C)[C@@H](O)[C@@H](OC)C(=O)[C@H](C)C[C@H](C)/C=C/C=C/C=C/1C [Rapamycin]
stability [12]: degraded even under physiological conditions

Y-type polyethylene glycol (40K)-glutamic acid dipeptide-rapamycin conjugate [LPR-3]
anti-tumor effect (in words) ([13]; 10 mg/kg counted with rapamycin, i.v. Q2W×2W): stronger antitumor activity than that of polyethylene glycol-rapamycin (LPR-1); also recorded: a certain anti-tumor effect | Days for delaying tumor growth (to 1000 mm^3) ([13]; 10 mg/kg i.v. Q2W×2W): >7 days | Tumor control rate T/C (%) ([13]; 10 mg/kg i.v. Q2W×2W, day 38, vs vehicle control): 47% | Tumor volume ([13]; day 24 after inoculation): 358 ± 62 mm^3 | Tumor volume ([13]; day 27 after inoculation): 455 ± 85 mm^3 | Tumor volume ([13]; day 31 after inoculation): 569 ± 100 mm^3 | Tumor volume ([13]; day 34 after inoculation): 754 ± 151 mm^3 | Tumor volume ([13]; day 38 after inoculation): 848 ± 178 mm^3
